Experimental data reported in ChEMBL document CHEMBL4342407, “Thieno[2,3-d]pyrimidine as a promising scaffold in medicinal chemistry: Recent advances” (Bioorg Med Chem, 2019).

What was measured:
MGC-803 = test: Antiproliferative activity against human MGC803 at 50 ug/ml after 48 hrs by MTT assay; format: functional; conditions: MGC-803, 48 h
ECa-109 cell line = test: Antiproliferative activity against human EC109 at 50 ug/ml after 48 hrs by MTT assay; format: functional; conditions: ECa-109, 48 h
HepG2 [1] = test: Antiproliferative activity against human HepG2 at 50 ug/ml after 48 hrs by MTT assay; format: functional; conditions: HepG2, 48 h
Rattus norvegicus [2] = test: Antiinflammatory activity in po dosed Wistar rat assessed as reduction in carrageenan-induced paw edema pretreated for 1 hr followed by carrageenan challenge and measured over 2 to 4 hrs post carrageenan challenge by plethysmography; format: functional
Mus musculus = test: Antiinflammatory activity in Swiss mouse assessed as inhibition of TPA-induced ear edema at 1 mg/ear applied topically and measured 4 hrs post-TPA challenge relative to control; format: functional
Rattus norvegicus [3] = test: Antiinflammatory activity in Wistar rat assessed as inhibition of cotton pellet-induced granuloma at 75 mg/kg, po administered daily for 7 days and measured on day 8 relative to control; format: functional
[4] = Ulcerogenic activity in Wistar albino rat assessed as ulcer index at 250 mg/kg, ip pretreated for 1 hr followed by pylorus ligation and measured at 4 hrs post ligation; format: toxicity, organism-based; conditions: in vivo
Rattus norvegicus [5] = test: Antiinflammatory activity in Sprague-Dawley rat assessed as protection against carrageenan-induced edema at 40 mg/kg, po pretreated for 1 hr followed by carrageenan challenge and measured after 3 hrs by mercury plethysmometer relative to control; format: functional
Rattus norvegicus [6] = test: Anti-ulcer activity in Wistar albino rat assessed as reduction in pylorus ligation induced ulcer at 250 mg/kg, ip pretreated for 1 hr followed by pylorus ligation and measured at 4 hrs post ligation; format: functional
MCF7 [7] = test: Antiproliferative activity against human MCF7 by MTT assay; format: functional, cell-based
HepG2 [8] = test: Antiproliferative activity against human HepG2 cells by MTT assay; format: functional, cell-based
Candida albicans = test: […] activity against Candida albicans assessed as zone inhibition at 500 ug/ml by cup plate agar diffusion method; format: functional; conditions: for zone of inhibition at 500 µg/mL: read-out: IZ
Bacillus subtilis = test: Antibacterial activity against Bacillus subtilis assessed as zone inhibition at 500 ug/ml by cup plate agar diffusion method; format: functional; conditions: read-out: IZ
Escherichia coli = test: Antibacterial activity against Escherichia coli assessed as zone inhibition at 500 ug/ml by cup plate agar diffusion method; format: functional; conditions: read-out: IZ
Staphylococcus aureus = test: Antibacterial activity against Staphylococcus aureus assessed as zone inhibition at 500 ug/ml by cup plate agar diffusion method; format: functional; conditions: read-out: IZ
Pseudomonas aeruginosa = test: Antibacterial activity against Pseudomonas aeruginosa assessed as zone inhibition at 500 ug/ml by cup plate agar diffusion method; format: functional; conditions: read-out: IZ
HeLa = test: Antiproliferative activity against human HeLa after 24 hrs by MTT assay; format: functional, cell-based
HEp-2 = test: Antiproliferative activity against human Hep2 after 24 hrs by MTT assay; format: functional, cell-based; conditions: HEp-2, 24 h
HepG2 [9] = test: Antiproliferative activity against human HepG2 after 24 hrs by MTT assay; format: functional, cell-based; conditions: HepG2, 24 h
MCF7 [10] = test: Antiproliferative activity against human MCF7 after 24 hrs by MTT assay; format: functional, cell-based; conditions: MCF7, 24 h
PC-3 = test: Antiproliferative activity against human PC3 after 24 hrs by MTT assay; format: functional, cell-based; conditions: PC-3, 24 h
Rattus norvegicus [11] = test: Antiinflammatory activity in Wistar rat model of Freund's adjuvant-induced arthritis assessed as inhibition of arthritis by measuring reduction in paw volume at 75 mg/kg, po administered once daily for 8 days starting from day 7 post Freund's adjuvant treatment and measured after 18 days by mercury plethysmography relative to control; format: functional

CCc1cc2c(=O)n(/N=C/c3ccccc3)c(C)nc2s1
inhibition at 50 µg/mL (MGC-803): 74.6% | inhibition at 50 µg/mL (ECa-109 cell line): 51.4% | inhibition at 50 µg/mL (HepG2 [1]): 57%

CC(C)Cc1ccc(C(C)C(=O)O)cc1 (configuration not stated) [IBUPROFEN]
ED50 (Rattus norvegicus [2]): 19.7 mg/kg | inhibition (INH) (Mus musculus): 40.2% | inhibition in vivo at 75 mg/kg (Rattus norvegicus [3]): 44.6%

C[C@]12CC[C@H]3[C@@H](CC=C4CC(O)CC[C@@]43C)[C@@H]1CC[C@@H]2C1=CSC2N=CN(N)C(=O)C12 (some centres not stated)
UI [4]: 1.02 | Activity (Rattus norvegicus [5]): 24% | inhibition in vivo at 250 mg/kg (Rattus norvegicus [6]): 71.7%

Cc1ccccc1CNc1nc(C(F)(F)F)nc2sc3c(c12)CCC3
IC50 (MCF7 [7]): 83.6 µM | IC50 (HepG2 [8]): > 100 µM

FC(F)(F)Oc1ccc(C2=Nc3ccccc3SC(c3cc4cncnc4s3)C2)cc1 (configuration not stated)
zone of inhibition at 500 µg/mL (Candida albicans): 10.6 mm | zone of inhibition at 500 µg/mL (Bacillus subtilis): 15.3 mm | zone of inhibition at 500 µg/mL (Escherichia coli): 12.3 mm | zone of inhibition at 500 µg/mL (Staphylococcus aureus): 15.1 mm | zone of inhibition at 500 µg/mL (Pseudomonas aeruginosa): 13.2 mm

CCOP(=O)(OCC)C(Nn1c(C)nc2sc(CC)cc2c1=O)c1ccc([N+](=O)[O-])cc1 (configuration not stated)
inhibition at 50 µg/mL (MGC-803): 59.8% | inhibition at 50 µg/mL (ECa-109 cell line): 54% | inhibition at 50 µg/mL (HepG2 [1]): 61.1%

COc1ccc(C2=NC3SC=C([C@H]4CC[C@H]5[C@@H]6CC=C7CC(O)CC[C@]7(C)[C@H]6CC[C@]45C)C3C(=O)N2N)cc1 (some centres not stated)
UI [4]: 0.29 | Activity (Rattus norvegicus [5]): 92% | inhibition in vivo at 250 mg/kg (Rattus norvegicus [6]): 91.9%

c1ccc2c(c1)N=C(c1cnccn1)CC(c1cc3cncnc3s1)S2 (configuration not stated)
zone of inhibition at 500 µg/mL (Candida albicans): 10.8 mm | zone of inhibition at 500 µg/mL (Bacillus subtilis): 16.2 mm | zone of inhibition at 500 µg/mL (Escherichia coli): 13.6 mm | zone of inhibition at 500 µg/mL (Staphylococcus aureus): 15.7 mm | zone of inhibition at 500 µg/mL (Pseudomonas aeruginosa): 13.4 mm

NYSTATIN
inhibition zone (IZ) (Candida albicans): 20.8 mm

C[C@]12CC[C@H]3[C@@H](CC=C4CC(O)CC[C@@]43C)[C@@H]1CC[C@@H]2c1csc(N)c1C(=O)NN (some centres not stated)
UI [4]: 0.62 | Activity (Rattus norvegicus [5]): 87% | inhibition in vivo at 250 mg/kg (Rattus norvegicus [6]): 82.7%

COc1ccc(/C=C/C(=O)c2sc3nc(S)n(-c4ccccc4)c(=O)c3c2C)cc1
IC50 (HeLa): 22.7 µM | IC50 (HEp-2): 39.5 µM | IC50 (HepG2 [9]): 32.8 µM | IC50 (MCF7 [10]): 28.9 µM | IC50 (PC-3): 28.9 µM

COc1cccc2c1C(=O)c1c(O)c3c(c(O)c1C2=O)C[C@@](O)(C(=O)CO)C[C@@H]3O[C@H]1C[C@H](N)[C@H](O)[C@H](C)O1 [DOXORUBICIN]
IC50 (HEp-2): 6.32 µM

Fc1cccc(CNc2nc(C(F)(F)F)nc3sc4c(c23)CCC4)c1
IC50 (MCF7 [7]): 5.18 µM | IC50 (HepG2 [8]): 7.31 µM

C[C@]12CC[C@H]3[C@@H](CC=C4CC(O)CC[C@@]43C)[C@@H]1CC[C@@H]2c1csc(N)c1-c1nnc(S)n1-c1ccccc1 (some centres not stated)
UI [4]: 1.29 | Activity (Rattus norvegicus [5]): 96% | inhibition in vivo at 250 mg/kg (Rattus norvegicus [6]): 64.2%

O=C(NN1C(S)=Nc2sc3c(c2C1c1ccccc1)CCCC3)c1ccccc1 (configuration not stated)
ED50 (Rattus norvegicus [2]): 62.7 mg/kg | inhibition in vivo at 75 mg/kg (Rattus norvegicus [11]): 25.6% | inhibition (INH) (Mus musculus): 57.9% | inhibition in vivo at 75 mg/kg (Rattus norvegicus [3]): 41.8%

C[C@]12CC[C@H]3[C@@H](CC=C4C[C@H](O)CC[C@@]43C)[C@@H]1CC[C@@H]2c1csc(N)c1-c1nnc(SCC(=O)c2ccccc2)n1-c1ccccc1
UI [4]: 0.83 | Activity (Rattus norvegicus [5]): 99% | inhibition in vivo at 250 mg/kg (Rattus norvegicus [6]): 76.9%

FC(F)(F)c1nc(NCc2ccc(Cl)cc2)c2c3c(sc2n1)CCC3
IC50 (MCF7 [7]): 13.8 µM | IC50 (HepG2 [8]): 8.63 µM

CCc1cc2c(=O)n(NC(c3cccc([N+](=O)[O-])c3)P(=O)(OC(C)C)OC(C)C)c(C)nc2s1 (configuration not stated)
inhibition at 50 µg/mL (MGC-803): 63.6% | inhibition at 50 µg/mL (ECa-109 cell line): 45.3% | inhibition at 50 µg/mL (HepG2 [1]): 90.8%

CCOP(=O)(OCC)C(Nn1c(C)nc2sc(CC)cc2c1=O)c1ccccc1 (configuration not stated)
inhibition at 50 µg/mL (MGC-803): 50.3% | inhibition at 50 µg/mL (ECa-109 cell line): 66.3% | inhibition at 50 µg/mL (HepG2 [1]): 66%
